Test results taken from EP1379135B1, “FORMULATIONS COMPRISING ENTRAPPED ACTIVE INGREDIENTS AND USES THEREOF” (THE SCRIPPS RESEARCH INSTITUTE, priority 2001, dated 2002).
“Also recorded” adds a separate entry of the source. Read-outs that look alike come from different tables or passages of the source.

Experiments:
[1] = system: IL-1β induced NO production in normal human articular chondrocytes; assay: IL-1β induced NO production in cultured chondrocytes (NO2 accumulation, Griess reaction); type: cell-based
Procedure: Chondrocytes were isolated from the cartilage by collagenase digestion and maintained in continuous monolayer cultures in DMEM containing 10% fetal bovine serum (FBS). Cell viability after chondrocyte isolation by collagenase digestion of normal cartilage was >95%. This level was maintained for at least 96 hrs post mortem. […] Experiments reported were performed with primary or first passage cells.
Chondrocytes were plated at 40,000 cells/well in 96-well plates in the presence of 1 % FBS. After 48 h, the medium was changed, and the cells were stimulated with IL-1β (Sigma) at a concentration of 5 ng/ml for 24 h. NO production was detected as NO2 accumulation in the culture supernatants by the Griess reaction as described elsewhere (Heval et al., (1994) Methods Enzymol. 233:250). IL-6 in the culture supernatants was measured by ELISA (R&D Systems, Minneapolis, MN) in accordance with the supplier's protocol.

iNOS mRNA = iNOS mRNA expression (Northern Blot); type: cell-based, human
Procedure: Total RNA was isolated from 2 x 10^6 chondrocytes stimulated using the STAT-60 reagent (Tel-Test, Friendswood, TX). RNA for each sample was quantified photometrically, and 5 µg was separated on 1.2% agarose, 6% formaldehyde gels. After electrophoresis, the gels were photographed, and the RNA was transferred onto HybondN nylon membranes (BRL, Baithesburg, MD) by capillary blotting. Membranes were air-dried and incubated for 2 hrs at 80°C. Prehybridization was done for 2 hrs at 60°C in 5 x SCC, 1 mM EDTA, 0.2% SDS and 5 x Denhardt solution. Radio-labeled probe was added and hybridization was carried out overnight at 60°C. After hybridization, the filters were rinsed twice in 2 x SSC, 0.1% SDS, washed once in 2 x SCC, 0.1 % SDS at 60°C and once in 0.2 x SCC, 0.1 % SDS at 60°C. The membranes were covered with plastic wrap and exposed with an intensifying screen for 12 hr at -70°C. The probes used for the hybridization were prepared as described earlier (Geng et al., (1993) J. Immunol. 151:6692; Geller et al., (1993) Proc. Natl. Acad. Sci. USA 90:3491).

iNOS protein = iNOS protein expression (Western Immunoblot); type: cell-based, human
Procedure: (§1) Whole cell extracts were prepared from 3 x 10^6 chondrocytes stimulated as described above by lysing the cells on the plate with ice cold lysis buffer (10 mM TrisHCl pH 7.6, 158 mM NaCl, 1 mM EDTA, 0.1% SDS, 1% Triton X-100, leupeptin […], aprotinin 1µg/ml, and 0.5 mM PMSF), which was added immediately before use. The lysates were transferred to Eppendorf tubes and centrifuged at 20,000 g for 30 min at 4 °C. The supernatants were transferred into fresh tubes, and the protein concentration was determined by Bradford assay. Similar amounts of protein were separated by 10% SDS PAGE and transferred to a nitrocellulose filter (Schleicher & Schuell, Keene, NH) by electroblotting. The filter was blocked overnight in 5% milk powder/TBS-T solution and then further incubated with one of the following antibodies: anti-iNOS (C-19, Santa Cruz Biotechnology, Inc., Santa Cruz, CA), anti-COX-2 (Cayman Chemical, Ann Arbor, MI), anti-COX-1 (H-3, Santa Cruz Biotechnology, Inc.), anti-phospho-JNK (phosphoThr 183 /Tyr 185, New England Biolabs, Inc., Beverly, MA), anti-phospho-p38MAP (phospho-Thr […]/Tyr 182, New England Biolabs, Inc.) or anti-phospho-ERK (phosphoThr 180/Tyr 182, New England Biolabs, Inc.) for 2 hrs. […]

COX-2 protein = COX-2 protein expression in IL-1β stimulated chondrocytes (Western Immunoblot); type: cell-based, human
Procedure: as §1

COX-1 protein = COX-1 protein expression in chondrocytes (Western Immunoblot); type: cell-based, human
Procedure: as §1

ERK = assay: IL-1β induced MAP kinase activation, ERK (phospho Western blot); type: cell-based, human; conditions: induced by IL-1β
Procedure: as §1

hexosaminidase = assay: IL-1β mediated increase in hexosaminidase secretion in chondrocytes; type: cell-based, human
chondrocytes = assay: Cell viability, MTT assay; type: cell-based, human; conditions: up to 20 mM
[2] = In vivo retention of GlcNAc in knee joints after intra-articular administration; design: species or system Wistar rats
Procedure: 50 µl of GlcNAc solution (unlabeled 2.69 mg/ml, labeled 5 µCi/ml, unlabeled:labeled molecule 10,000:1) was injected into knee joint of six rats. These rats (2 animals/time point) were sacrificed at 0, 30 min, and 2 hr after administration of a GlcNAc solution. Two other two rats were injected with normal saline as negative controls. All joints were removed and homogenized with 5 ml of normal saline at 16,000 rpm for about 30 sec. 100 µl of the tissue homogenate was added to 500 µl tissue solubilizer. The solution was incubated at 50 °C for 16 hrs, mixed with 30 µl of glacial acetic acid and 5 ml of liquid scintillation cocktail. The [^3H]GlcNAc activity was measured by a liquid scintillation counter.
Fourteen rats were used for each liposomal formulation. 50 µl of liposome (prepared as disclosed herein, 1.13 µCi/ml, GlcNAc concentration was 0.61 mg/ml, unlabeled:labeled molecule 10,000:1) was injected into each knee joint in twelve rats. Another two rats were injected with 50 µl of normal saline as negative controls. Animals (2 rats/time point) were sacrificed at time points corresponding to 0, 1, 3, 7, 14, 21, and 28 days after administration of GlcNAc. The knee joints were removed and [^3H]GlcNAc activity was determined as disclosed herein.

CC(=O)N[C@H]1C(O)O[C@H](CO)[C@@H](O)[C@@H]1O (stereo partly shown) [GlcNAc, N-acetylglucosamine]
NO production triggered by IL-1β [1]: suppressed NO production; also recorded: stronger inhibition of NO production than GA | concentration of maximal inhibitory effect on NO production [1]: 20 mM | concentrations not effective in inhibiting NO production [1]: lower than 1 mM | IC50 ([1]; Homo sapiens, Chondrocyte, IL-1β 5 ng/ml for 24 h, GlcNAc vs GA p < 0.01, read-out: IC50 (inhibition of NO production)): 4.1 ± 1.3 mM | inhibitory activity on IL-1β induced NO production ([1]; concentration of 10 mM): demonstrated inhibitory activity | NO production triggered by IL-1β ([1]; listed as GIcNAc): measurably inhibited NO production in the lower millimolar range | concentrations not effective in inhibiting NO production ([1]; listed as GIcNAc): below 1 mM | expression of iNOS mRNA (iNOS mRNA): strongly inhibited | expression of iNOS protein (iNOS protein): strongly inhibited | expression of COX-2 protein (COX-2 protein): inhibited | expression of the constitutively expressed COX-1 protein (COX-1 protein): did not affect | ERK MAP kinase activation (ERK): does not inhibit | IL-1β mediated increase in hexosaminidase secretion (hexosaminidase): did not suppress | cell viability (chondrocytes): Neither GA nor GlcNAc at dosages up to 20 mM affected cell viability | half-life ([2]; Wistar, rat, knee joint homogenate, 0.1345 mg per knee joint, single intra-articular administration, saline solution): 4.1 min | GlcNAc retention at the rat knee joints ([2]; after intra-articular administration): moved out of the rat joint rapidly
